What follows are molecules tested against T1, human TLR7 (Homo sapiens, UniProt Q9NYK1) (assay: TLR7 inhibition reporter assay (HEK-Blue SEAP)). Conditions: HEK-Blue cells overexpressing human TLR7, gardiquimod 7.5 μM, 22 hour incubation.
T1 construct: host or cells: HEK-Blue cells
T1 sequence (Q9NYK1 27-1049): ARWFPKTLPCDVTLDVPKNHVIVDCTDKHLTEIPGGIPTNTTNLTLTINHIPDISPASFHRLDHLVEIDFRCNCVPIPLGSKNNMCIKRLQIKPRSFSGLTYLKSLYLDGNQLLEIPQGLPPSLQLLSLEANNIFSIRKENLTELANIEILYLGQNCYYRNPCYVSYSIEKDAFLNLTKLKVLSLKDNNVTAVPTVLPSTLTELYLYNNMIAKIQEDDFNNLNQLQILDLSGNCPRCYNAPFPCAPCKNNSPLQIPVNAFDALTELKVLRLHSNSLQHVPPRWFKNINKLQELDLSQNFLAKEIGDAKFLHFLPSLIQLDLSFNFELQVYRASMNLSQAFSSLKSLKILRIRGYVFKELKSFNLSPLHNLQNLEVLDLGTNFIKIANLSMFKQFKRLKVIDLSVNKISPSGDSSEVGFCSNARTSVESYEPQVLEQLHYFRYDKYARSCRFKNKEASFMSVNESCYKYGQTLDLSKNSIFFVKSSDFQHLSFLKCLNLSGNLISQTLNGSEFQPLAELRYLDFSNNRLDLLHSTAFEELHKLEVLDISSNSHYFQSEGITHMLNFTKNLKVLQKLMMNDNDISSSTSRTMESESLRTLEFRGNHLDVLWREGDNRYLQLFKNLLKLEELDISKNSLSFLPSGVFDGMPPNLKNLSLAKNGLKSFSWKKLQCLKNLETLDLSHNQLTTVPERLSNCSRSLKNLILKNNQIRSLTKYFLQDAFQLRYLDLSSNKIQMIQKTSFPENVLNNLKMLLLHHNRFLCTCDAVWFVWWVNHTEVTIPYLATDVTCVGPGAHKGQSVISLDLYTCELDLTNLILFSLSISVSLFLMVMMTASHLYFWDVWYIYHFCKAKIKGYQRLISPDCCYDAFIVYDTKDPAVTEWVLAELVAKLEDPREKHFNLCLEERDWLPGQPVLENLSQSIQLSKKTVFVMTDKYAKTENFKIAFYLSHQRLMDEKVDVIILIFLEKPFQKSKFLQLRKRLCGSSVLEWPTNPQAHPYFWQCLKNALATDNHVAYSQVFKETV
Format: cell-based
In short: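 Cells (15000/well for TLR7, 20,000 for TLR8) were treated with compounds over 0.05 nM-50 μM final. After 22 h at 37° C, 5% CO2, SEAP was measured with HEK-Blue Detection reagent; percent inhibition was taken as reduction of agonist-plus-DMSO signal relative to a known inhibitor.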

IC50 | Structure (SMILES)
211 nM | Cc1cc2c(cc1-c1cc(C)c3ncnn3c1)[nH]c(=O)n2[C@@H]1CCCN(CCC(F)(F)F)C1 [Example 29, (R)-6-methyl-5-(8-methyl-[1,2,4]triazolo[1,5-a]pyridin-6-yl)-1-(1-(3,3,3-trifluoropropyl)piperidin-3-yl)-1,3-dihydro-2H-benzo[d]imidazol-2-one]
8.23 nM | Cc1cc2c(cc1-c1cc(C)c3ncnn3c1)[nH]c(=O)n2[C@H]1CC[C@@H](NC2CCOCC2)CC1 [Example 30, 6-methyl-5-(8-methyl-[1,2,4]triazolo[1,5-a]pyridin-6-yl)-1-((1s,4s)-4-((tetrahydro-2H-pyran-4-yl)amino)cyclohexyl)-1,3-dihydro-2H-benzo[d]imidazol-2-one]
11.1 nM | Cc1cc2c(cc1-c1cc(C)c3ncnn3c1)[nH]c(=O)n2[C@H]1CC[C@@H](NCCC(F)(F)F)CC1 [Example 31]
1.99 nM | COc1cc(-c2cc3[nH]c(=O)n(C4CCC(N5CCSCC5)CC4)c3cc2C(C)C)cn2ncnc12 (centres unmarked) [Example 250, 6-isopropyl-5-(8-methoxy-[1,2,4]triazolo[1,5-a]pyridin-6-yl)-1-(4-thiomorpholinocyclohexyl)-1,3-dihydro-2H-benzo[d]imidazol-2-one]
3.54 nM | COc1cc(-c2cc3[nH]c(=O)n(C4CCC(N5CCSCC5)CC4)c3cc2C(C)C)cn2ncnc12 (centres unmarked) [Example 251, 6-isopropyl-5-(8-methoxy-[1,2,4]triazolo[1,5-a]pyridin-6-yl)-1-(4-thiomorpholinocyclohexyl)-1,3-dihydro-2H-benzo[d]imidazol-2-one]
6.81 nM | COc1cc(-c2cc3[nH]c(=O)n(C4CCC(N5CC6(COC6)C5)CC4)c3cc2C(C)C)cn2ncnc12 (centres unmarked) [Example 254, 1-(4-(2-oxa-6-azaspiro[3.3]heptan-6-yl)cyclohexyl)-6-isopropyl-5-(8-methoxy-[1,2,4]triazolo[1,5-a]pyridin-6-yl)-1,3-dihydro-2H-benzo[d]imidazol-2-one]
6.97 nM | COCCNC1CCC(n2c(=O)[nH]c3cc(-c4cn5ncnc5c(OC)c4C)c(C(C)C)cc32)CC1 (centres unmarked) [Example 257]
4.25 nM | COCCNC1CCC(n2c(=O)[nH]c3cc(-c4cn5ncnc5c(OC)c4C)c(C(C)C)cc32)CC1 (centres unmarked) [Example 258]
7.18 nM | COc1c(C)c(-c2cc3[nH]c(=O)n(C4CCC(N5CC(OC)C5)CC4)c3cc2C(C)C)cn2ncnc12 (centres unmarked) [Example 265, 6-isopropyl-5-(8-methoxy-7-methyl-[1,2,4]triazolo[1,5-a]pyridin-6-yl)-1-(4-(3-methoxyazetidin-1-yl)cyclohexyl)-1,3-dihydro-2H-benzo[d]imidazol-2-one]
13.4 nM | COc1c(C)c(-c2cc3[nH]c(=O)n(C4CCC(N5CC(OC)C5)CC4)c3cc2C(C)C)cn2ncnc12 (centres unmarked) [Example 266, 6-isopropyl-5-(8-methoxy-7-methyl-[1,2,4]triazolo[1,5-a]pyridin-6-yl)-1-(4-(3-methoxyazetidin-1-yl)cyclohexyl)-1,3-dihydro-2H-benzo[d]imidazol-2-one]
6.06 nM | Cc1c(-c2cc3[nH]c(=O)n(C4CCC(N5CCCOCC5)CC4)c3cc2C(C)C)cn2ncnc2c1C (centres unmarked) [Example 271, 1-(4-(1,4-oxazepan-4-yl)cyclohexyl)-5-(7,8-dimethyl-[1,2,4]triazolo[1,5-a]pyridin-6-yl)-6-isopropyl-1,3-dihydro-2H-benzo[d]imidazol-2-one]
5.37 nM | Cc1c(-c2cc3[nH]c(=O)n(C4CCC(N5CCCOCC5)CC4)c3cc2C(C)C)cn2ncnc2c1C (centres unmarked) [Example 272, 1-(4-(1,4-oxazepan-4-yl)cyclohexyl)-5-(7,8-dimethyl-[1,2,4]triazolo[1,5-a]pyridin-6-yl)-6-isopropyl-1,3-dihydro-2H-benzo[d]imidazol-2-one]
9.22 nM | Cc1c(-c2cc3[nH]c(=O)n(C4CCC(N5CCCC(F)C5)CC4)c3cc2C(C)C)cn2ncnc2c1C (centres unmarked) [Example 273, 5-(7,8-dimethyl-[1,2,4]triazolo[1,5-a]pyridin-6-yl)-1-(4-(3-fluoropiperidin-1-yl)cyclohexyl)-6-isopropyl-1,3-dihydro-2H-benzo[d]imidazol-2-one]
6.78 nM | Cc1c(-c2cc3[nH]c(=O)n(C4CCC(N5CCCC(F)C5)CC4)c3cc2C(C)C)cn2ncnc2c1C (centres unmarked) [Example 274, 5-(7,8-dimethyl-[1,2,4]triazolo[1,5-a]pyridin-6-yl)-1-(4-(3-fluoropiperidin-1-yl)cyclohexyl)-6-isopropyl-1,3-dihydro-2H-benzo[d]imidazol-2-one]
2.89 nM | Cc1c(-c2cc3[nH]c(=O)n(C4CCC(N5CC(F)C5)CC4)c3cc2C(C)C)cn2ncnc2c1C (centres unmarked) [Example 279, 5-(7,8-dimethyl-[1,2,4]triazolo[1,5-a]pyridin-6-yl)-1-(4-(3-fluoroazetidin-1-yl)cyclohexyl)-6-isopropyl-1,3-dihydro-2H-benzo[d]imidazol-2-one]
4.91 nM | Cc1c(-c2cc3[nH]c(=O)n(C4CCC(N5CC(F)C5)CC4)c3cc2C(C)C)cn2ncnc2c1C (centres unmarked) [Example 280, 5-(7,8-dimethyl-[1,2,4]triazolo[1,5-a]pyridin-6-yl)-1-(4-(3-fluoroazetidin-1-yl)cyclohexyl)-6-isopropyl-1,3-dihydro-2H-benzo[d]imidazol-2-one]
0.7 nM | COc1cc(-c2cc3[nH]c(=O)n(C4CCC(N5CCC(OC)C5)CC4)c3cc2C(C)C)cn2ncnc12 (centres unmarked) [Example 284, 6-isopropyl-5-(8-methoxy-[1,2,4]triazolo[1,5-a]pyridin-6-yl)-1-(4-(3-methoxypyrrolidin-1-yl)cyclohexyl)-1,3-dihydro-2H-benzo[d]imidazol-2-one]
0.66 nM | COc1cc(-c2cc3[nH]c(=O)n(C4CCC(N5CCC(OC)C5)CC4)c3cc2C(C)C)cn2ncnc12 (centres unmarked) [Example 285, 6-isopropyl-5-(8-methoxy-[1,2,4]triazolo[1,5-a]pyridin-6-yl)-1-(4-(3-methoxypyrrolidin-1-yl)cyclohexyl)-1,3-dihydro-2H-benzo[d]imidazol-2-one]
0.7 nM | COc1cc(-c2cc3[nH]c(=O)n(C4CCC(N5CC[C@H](F)C5)CC4)c3cc2C(C)C)cn2ncnc12 (stereo partly drawn) [Example 286, (S)-1-(4-(3-fluoropyrrolidin-1-yl)cyclohexyl)-6-isopropyl-5-(8-methoxy-[1,2,4]triazolo[1,5-a]pyridin-6-yl)-1,3-dihydro-2H-benzo[d]imidazol-2-one]
1.53 nM | COc1cc(-c2cc3[nH]c(=O)n(C4CCC(N5CC[C@H](F)C5)CC4)c3cc2C(C)C)cn2ncnc12 (stereo partly drawn) [Example 287, (S)-1-(4-(3-fluoropyrrolidin-1-yl)cyclohexyl)-6-isopropyl-5-(8-methoxy-[1,2,4]triazolo[1,5-a]pyridin-6-yl)-1,3-dihydro-2H-benzo[d]imidazol-2-one]

Reference: patent US12187723B2 (BRISTOL-MYERS SQUIBB COMPANY, priority 2019, dated 2025)
